Like-named read-outs stand apart in the source and are kept apart here.
Assays:
phospho-Ser10 histone H3 = assay: Phospho-histone H3 (Ser10) in xenograft tumour lysates (Western blot); type: in vivo, mouse; settings: within 24 hr after single 200mg/kg oral dose, compared with vehicle
Experimental: Tumours were established by sub-cutaneous implantation of 2 x 10^6 HCT116 cells suspended in 50% Matrigel into the flanks of a cohort of mice. When a sufficient number of mice had developed tumours of approximately 100mm3, they were randomly assigned to three groups: Vehicle, 50mg/kg Poloppin-II or 200mg/kg Poloppin-II, with 10 mice per group. Mice were treated orally according to their treatment group once every three days. Tumour volume was measured three times per week with calipers. Body weight was measured three times per week. In addition to mice assigned to tumour volume efficacy arm of the study, 16 mice with established HCT116 xenografts were assigned to either Vehicle or 200mg/kg oral dosing groups, with 8 mice per group. 24 hours after a single dose, mice were euthanised, tumours removed, snap frozen and 30-50microgram of lysates were analysed by Western blotting on 4-12% Bis-Tris acrylamide gels, and transferred using the Invitrogen iBlot dry system. Phospho-Histone H3 was detected using Abcam antibody ab5176, beta-actin with Sigma antibody a5316. […] HRP was visualised with ECL-Plus (GE Healthcare).

[1] = Stability in human hepatocytes; type: in vitro ADME
HCT116 KRAS G13D cells = assay: Development of drug resistance under continuous treatment; type: cell-based, human; settings: continuous treatment at 5x GI50
Experimental: HCT116 wild-type cells (Horizon Discovery Ltd.) cultured in McCoy's 5A (Life Technologies #26600) medium supplemented with 10% Foetal Calf Serum (Life Technologies #10270) were treated on three occasions with titrations of the PLK1 ATP-competitive inhibitor BI 2536 (Selleckchem #S1109) or Poloppin in order to determine the 2.5x GI50, 3x GI50 and 5x GI50 values for each compound required to initiate the development of resistance. Cells were subsequently treated with 2.5x GI50, 3x GI50 and 5x GI50 concentrations of either compound, changing media and compound every three to four days until resistant colonies emerged or no viable cells remained. Single cell clones were isolated from cells resistant to 5x GI50 BI 2536. Equivalent experiments using 3x GI50 or 2.5x GI50 doses of Poloppin or BI2536 yielded identical results (data not shown). BI 2536-resistant clones (HCT116 BI 2536-Res. Clones) were treated with BI2536 or Poloppin, alongside drug-sensitive parental HCT116 cells (HCT116 wt), and viability was assessed after 72 h. Viability is represented as percentage survival normalised to DMSO control. […]

Panc 02.03 = assay: Cell viability (SRB), Panc 02.03; type: cell-based; settings: Homo sapiens, Panc 02.03, 72 h
Experimental: SW48 Parental, SW48 G12D, Panc-1, HPAF-II, Panc 02.03 and Panc 05.04 cell lines were seeded overnight at 5000 cells per well in a 96 well plate in recommended media (ATCC). Compounds were added the following day and viability was measured at 72h using the sulforhodamine B (SRB) colorimetric assay as follows. Cells were fixed by replacing media with 1% v/v Trichloroacetic Acid (TCA) (Sigma-Aldrich) at 4°C and incubated for 1h also at 4°C. Wells were washed thoroughly with copious amounts of deionised water before staining with Sulforhodamine B (SRB) (Sigma-Aldrich) solution (0.057% w/v in 1% v/v Acetic Acid (VWR)) for 30 min. Stain was aspirated and wells washed with several changes of 1% v/v Acetic Acid until unbound stain was removed, before air-drying. Bound stain was solubilized with 100μl / well 10mM Tris (pH 8.0) (Trizma Base (121.1) Sigma-Aldrich) with agitation for 10 min. Fluorescence intensity was recorded at Ex540nm / Em590nm using a BMG Pherastar Plus plate reader ([Vichai and Kirtikara, 2006]).
Pancreatic organoids were extracted and cultured as detailed above ([Boj et al., 2015]). In brief, pancreatic organoids were seeded at 600 cells per well in a 96 well plate and allowed to grow for 7 days with media replenishment on the 3rd day. Full-grown organoids were then treated with compounds for 72h and viability determined using CellTitre Glo 3D assay (Promega). For viability assays with c-MET siRNA, cells were reverse transfected in a 6 cm dish using Dharmafect 1 (GE Dharmacon) per manufacturer’s instructions. On the following day, cells were trypsinised and plated onto 96 well plates or 6 well plates. The 96 well plates were treated with a dose range of compounds or DMSO, and viability was determined via SRB colorimetric assay. […]
Cells were reverse-transfected with 50nM (SW48 parental, SW48 KRAS G12D and Panc-1) or 25nM (HeLa Flp-In T-REx parental cells) siRNA using Dharmafect (GE Dharmacon) as manufacturer’s recommendations. […] Viability was assessed after 72 hrs, with the SRB colorimetric assay. Knockdown efficiencies were determined by Western blot or RT-qPCR. […]

Question: With `CN(C)CCNC(=O)c1ccc(-c2ccc(-c3ccc(Cl)cc3)n2-c2ccccc2C(F)(F)F)cc1` [Poloppin-II] as the compound, how does the “phospho-Ser10 histone H3 expression in xenografts” value (phospho-Ser10 histone H3) read?
Answer: increased levels

Question: What about the half-life [1] of the same compound?
Answer: 2.27 h

Question: What about the hepatocyte CLint [1] of the same compound?
Answer: 10 µL/min/1e6 cells

Question: Which “acquisition of drug resistance” value (HCT116 KRAS G13D cells) does the source give for `O=C(O)CCc1ccc(-c2ccc(Br)cc2)n1-c1ccccc1C(F)(F)F` [Poloppin] here?
Answer: undetectable

Question: And the EC50 (Panc 02.03; read-out: EC50, % survival, Panc 02.03, All Stars control siRNA, 72 h)?
Answer: 47.1 ± 1.03 µM

Question: And the EC50 (Panc 02.03; read-out: EC50, % survival, Panc 02.03, siMET, 72 h)?
Answer: 8.7 ± 1.16 µM

Source: publication PMC5563081, “Modulating Protein-Protein Interactions of the Mitotic Polo-like Kinases to Target Mutant KRAS” (Cell Chemical Biology, 2017)
